In patent US10793582B2, “Bicyclic heterocyclic compound” (MITSUBISHI TANABE PHARMA CORPORATION, priority 2015, dated 2020):
Where a name gives a salt, the structure may show the parent alone.

biological target: human recombinant KAT-II (Homo sapiens (Human), UniProt Q8N5Z0); test: KAT-II inhibitory test; format: biochemical; conditions: 3.0 μmol/L kynurenine, 37° C. for 1 hr, kynurenic acid by HPLC
Procedure: The compounds described in the above-mentioned Examples were used for the KAT-II inhibitory test.
Human recombinant KAT-II was prepared as follows.
His tag and maltose binding protein tag were added to the N-terminal of a gene encoding human KAT-II (Genbank accession number: AF481738.1), and the obtained gene was incorporated into pET32 (Merck Nihon Millipore), which is an Escherichia coli expression vector. Human recombinant KAT-II produced by BL21(DE3) Escherichia coli (Merck Nihon Millipore, 69450) transformed using the plasmid was purified using an amylose resin column (New England Biolabs, #800-21 L).
The inhibitory action of the test compound on human recombinant KAT-II was determined by the following method.
To a reaction mixture (45 μL) containing 3.0 μmol/L kynurenine, 10 μmol/L pyridoxal phosphate, 2.0 ng/μL human recombinant KAT-II, and 150 mmol/L tris(hydroxymethyl)aminomethane-acetate buffer (pH 8.0) was added a 10% dimethyl sulfoxide solution (5 μL) of each test compound prepared, and the mixture was reacted at 37° C. for 1 hr. After the reaction, 50% trichloroacetic acid (5 μL) was added to terminate the reaction.
The resultant kynurenic acid was quantified as follows by high performance liquid chromatography. An enzyme reaction mixture was separated by an octadecylsilane reversed-phase column (SC-50DS, Eicom Corporation; mobile phase: 250 mmol/L zinc acetate, 50 mmol/L sodium acetate, and 5.0% acetonitrile (pH 6.2)) incubated at 30° C., and kynurenic acid was quantified using a fluorescence detector (RF-20Axs, Shimadzu Corporation) at excitation wavelength 354 nm, detection wavelength 460 nm. The analytical curve was drawn every time by an external standard method. Each test compound was tested by dual measurement at each concentration. The kynurenic acid level in the presence of a test compound at each concentration was converted into % relative to kynurenic acid resulting from a reaction with an enzyme alone as 100%, and the obtained values were fitted to S-curve to determine IC50.

Sequence of human recombinant KAT-II (Q8N5Z0 30-425): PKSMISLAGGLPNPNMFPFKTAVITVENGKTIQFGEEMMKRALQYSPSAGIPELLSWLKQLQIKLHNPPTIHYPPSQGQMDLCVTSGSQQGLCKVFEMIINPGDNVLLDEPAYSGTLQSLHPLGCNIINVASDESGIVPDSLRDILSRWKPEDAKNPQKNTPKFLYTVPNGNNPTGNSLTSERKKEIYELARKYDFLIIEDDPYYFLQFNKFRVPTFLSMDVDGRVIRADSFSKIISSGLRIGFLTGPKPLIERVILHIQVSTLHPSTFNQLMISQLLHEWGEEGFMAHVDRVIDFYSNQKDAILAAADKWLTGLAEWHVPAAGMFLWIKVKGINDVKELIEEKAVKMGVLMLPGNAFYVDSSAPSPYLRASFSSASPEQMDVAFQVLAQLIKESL

Compound	IC50 [nM]
CCc1c(-c2cnn(C)c2)cnc2nc(N3CCC[C@@H]3C(=O)NCc3ccccc3)sc12 [Example 170, (R)—N-benzyl-1-[7-ethyl-6-(1-methyl-1H-pyrazol-4-yl)[1,3]thiazolo[4,5-b]pyridin-2-yl]pyrrolidine-2-carboxamide]	34
O=C(NCc1ccccc1)[C@H]1CSCN1c1nc2ncnc(C3CC3)c2s1 [Example 100, (S)—N-benzyl-3-(7-cyclopropyl[1,3]thiazolo[4,5-d]pyrimidin-2-yl)-1,3-thiazolidine-4-carboxamide]	240
O=C(NCc1ccc(F)cc1)[C@H]1CCCN1c1nc2ncc(C3CC3)cc2s1 [Example 162, (R)-1-(6-cyclopropyl[1,3]thiazolo[4,5-b]pyridin-2-yl)-N-(4-fluorobenzyl)pyrrolidine-2-carboxamide]	300
CN(C)c1nc(C2CC2)c2sc(N3CCC[C@@H]3C(=O)NCc3ccccc3)nc2n1 [Example 106, (R)—N-benzyl-1-[7-cyclopropyl-5-(N,N-dimethylamino)[1,3]thiazolo[4,5-d]pyrimidin-2-yl]pyrrolidine-2-carboxamide]	920
CN(c1nc2ncnc(C3CC3)c2s1)C(C)(C)C(=O)NCc1ccccc1 [Example 92]	2100
CCOc1c(COC)cnc2nc(N3CCC[C@@H]3C(=O)NCc3ccccc3)sc12 [Example 164]	150
CCc1nc(-n2nc(C)cc2C)nc2nc(N3CCC[C@@H]3C(=O)NCc3ccccc3)sc12 [Example 103, (R)—N-benzyl-1-[5-(3,5-dimethyl-1H-pyrazol-1-yl)-7-ethyl[1,3]thiazolo[4,5-d]pyrimidin-2-yl]pyrrolidine-2-carboxamide]	200
CN(c1nc2ncnc(C3CC3)c2s1)[C@@H](C(=O)NCc1ccccc1)C1CC1 [Example 93]	140
Cc1cc2sc(N3CCC[C@@H]3C(=O)NC3(c4ccccc4)CC3)nc2nc1C [Example 120]	530
O=C(NCc1ccccc1)[C@H]1CCCN1c1nc2nc(COC3CCOCC3)nc(C3CC3)c2s1 [Example 83]	13
Cc1cnc2nc([C@H]3CCCN3C(=O)NC3(c4ccccc4)CC3)sc2c1 [Example 203, (R)-2-(6-methyl[1,3]thiazolo[4,5-b]pyridin-2-yl)-N-(1-phenylcyclopropyl)-pyrrolidine-1-carboxamide]	7400
Cc1nc(-c2cnc3nc(N4CCC[C@@H]4C(=O)N[C@H](C)c4ccccc4)sc3c2)no1 [Example 148, (R)-1-[6-(5-methyl-1,2,4-oxadiazol-3-yl)[1,3]thiazolo[4,5-b]pyridin-2-yl]-N-[(1R)-1-phenylethyl]pyrrolidine-2-carboxamide]	93
O=C(NCc1ccccc1)[C@H]1CCCN1c1nc2ncnc(OCC(F)(F)F)c2s1 [Example 70]	160
O=C(NCc1ccccc1)[C@H]1CCCN1c1nc2ncnc(-c3ccccn3)c2s1 [Example 35]	290
CCc1nc(-n2nccn2)nc2nc(N3CCC[C@@H]3C(=O)NCc3ccccc3)sc12 [Example 101, (R)—N-benzyl-1-[7-ethyl-5-(2H-1,2,3-triazol-2-yl)[1,3]thiazolo[4,5-d]pyrimidin-2-yl]pyrrolidine-2-carboxamide]	150
CC(C)(C#N)c1ncnc2nc(N3CCC[C@@H]3C(=O)NCc3ccccc3)sc12 [Example 76, (R)—N-benzyl-1-[7-(2-cyanopropan-2-yl)[1,3]thiazolo[4,5-d]pyrimidin-2-yl]pyrrolidine-2-carboxamide]	1500

Compound	IC50 [nM]
Cc1nc(-c2ccc(F)cc2)nc2nc(N3CCC[C@@H]3C(=O)NCc3ccccc3)sc12 [Example 78]	550
COCCN(c1nc2ncnc(C3CC3)c2s1)[C@H](C)C(=O)NCc1ccccc1 [Example 38]	410
CCCc1ncnc2nc(N3CCC[C@@H]3C(=O)NCc3ccccc3)sc12 [Example 26]	120
O=C(NCc1ccccc1)[C@H]1CCCN1c1nc2ncc(-c3ccccc3)nc2s1 [Example 189]	210
O=C(NCc1ccccc1)[C@H]1CCCN1c1nc2nc(CN3CCOCC3)nc(C3CC3)c2s1 [Example 98]	75
CCc1nc(C2CC2)nc2nc(N3CCC[C@@H]3C(=O)NCc3ccccc3)sc12 [Example 41]	170
CC1(c2ncnc3nc(N4CCC[C@@H]4C(=O)NCc4ccccc4)sc23)CC1 [Example 31, (R)—N-benzyl-1-[7-(1-methylcyclopropyl)[1,3]thiazolo[4,5-d]pyrimidin-2-yl]pyrrolidine-2-carboxamide]	65
COCc1nc(C(F)(F)F)c2sc(N3CCC[C@@H]3C(=O)NCc3ccccc3)nc2n1 [Example 56]	230
O=C(NCc1ccccc1)[C@H]1CCCN1c1nc2ncnc(OC3CCOCC3)c2s1 [Example 90]	130
CCNc1nc(C(F)(F)F)nc2nc(N3CCC[C@@H]3C(=O)NCc3ccccc3)sc12 [Example 67]	12
Cc1nc(OC2CCOCC2)nc2nc(N3CCC[C@@H]3C(=O)NCc3ccccc3)sc12 [Example 84]	390
Cc1nc(-c2c(C)cnc3nc(N4CCC[C@@H]4C(=O)NCc4ccccc4)sc23)no1 [Example 149]	110
C[C@H](C(=O)NCc1ccccc1)N(C)c1nc2ncnc(C3CC3)c2s1 [Example 36, (R)—N-benzyl-2-[N′-(7-cyclopropyl[1,3]thiazolo[4,5-d]pyrimidin-2-yl)-N′-methylamino]propionamide]	64
CN(C)Cc1nc(C2CC2)c2sc(N3CCC[C@@H]3C(=O)NCc3ccccc3)nc2n1 [Example 58]	640
O=C(NCc1ccccc1)[C@H]1CCCN1c1nc2nc(-c3ccncc3)nc(C3CC3)c2s1 [Example 49]	76

Now from value to compound:

IC50 [nM]	Compound
72	O=C(NCc1ccccc1)[C@H]1CCCN1c1nc2ncc(C3CCOCC3)cc2s1 [Example 129]
640	Cc1nc(-c2cnc3nc(N4CCC[C@@H]4C(=O)NCc4ccccc4)sc3c2)no1 [Example 183, (R)—N-benzyl-1-[6-(5-methyl-1,2,4-oxadiazol-3-yl)[1,3]thiazolo[4,5-b]pyridin-2-yl]pyrrolidine-2-carboxamide]
200	CCc1ncnc2nc(N3CCC[C@@H]3C(=O)NCc3ccccc3)sc12 [Example 24]
270	CC(C)(C)c1ncnc2nc(N3CCC[C@@H]3C(=O)NCc3ccccc3)sc12 [Example 30]
190	CN(C)Cc1cnc2nc(N3CCC[C@@H]3C(=O)NCc3ccccc3)sc2c1C1CC1 [Example 176, (R)—N-benzyl-1-{7-cyclopropyl-6-[(dimethylamino)methyl][1,3]thiazolo[4,5-b]pyridin-2-yl}pyrrolidine-2-carboxamide hydrochloride]
390	Cc1nc(C(C)(C)c2cnc3nc(N4CCC[C@@H]4C(=O)NCc4ccccc4)sc3c2)no1 [Example 171, (R)—N-benzyl-1-{6-[2-(5-methyl-1,2,4-oxadiazol-3-yl)propan-2-yl][1,3]thiazolo[4,5-b]pyridin-2-yl}pyrrolidine-2-carboxamide]
190	CC(C)c1ncnc2nc(N3CCC[C@@H]3C(=O)NCc3ccccc3)sc12 [Example 28]
490	Cc1cnc2nc(N3CCC[C@@H]3C(=O)NCc3ccccc3)sc2c1C#N [Example 136, (R)—N-benzyl-1-(7-cyano-6-methyl[1,3]thiazolo[4,5-b]pyridin-2-yl)pyrrolidine-2-carboxamide]
210	CN(C)c1cnc2nc(N3CCC[C@@H]3C(=O)NCc3ccccc3)sc2n1 [Example 191]
85	CC(C)(C#N)c1cnc2nc(N3CCC[C@@H]3C(=O)NCc3ccccc3)sc2c1 [Example 113, (R)—N-benzyl-1-[6-(2-cyanopropan-2-yl)[1,3]thiazolo[4,5-b]pyridin-2-yl]pyrrolidine-2-carboxamide]
200	Cc1cnc2nc(N3CCC[C@@H]3C(=O)NCc3ccccc3)sc2c1 [Example 134]
170	COCC1(c2cnc3nc(N4CCC[C@@H]4C(=O)NCc4ccccc4)sc3c2)CC1 [Example 117]
910	COCc1c(F)cnc2nc(N3CCC[C@@H]3C(=O)NCc3ccccc3)sc12 [Example 163, (R)—N-benzyl-1-[6-fluoro-7-(methoxymethyl)[1,3]thiazolo[4,5-b]pyridin-2-yl]pyrrolidine-2-carboxamide]
140	CCc1cnc2nc(N3CCC[C@@H]3C(=O)NCc3ccccc3)sc2n1 [Example 187]
320	COCc1ccnc2nc(N3CCC[C@@H]3C(=O)NCc3ccccc3)sc12 [Example 141]
490	CCOc1cnc2nc(N3CCC[C@@H]3C(=O)NCc3ccccc3)sc2n1 [Example 190]
840	Cc1nc2nc(N3CCC[C@@H]3C(=O)NCc3ccccc3)sc2c(=O)n1C [Example 109, (R)—N-benzyl-1-(5,6-dimethyl-7-oxo-6,7-dihydro[1,3]thiazolo[4,5-d]pyrimidin-2-yl)pyrrolidine-2-carboxamide]
210	CC(C)c1cnc2nc(N3CCC[C@@H]3C(=O)NCc3ccccc3)sc2c1 [Example 111]
640	COCc1cnc2nc(N3CCC[C@@H]3C(=O)NCc3ccccc3)sc2c1 [Example 159]
